We go through 3 molecules from ChEMBL document CHEMBL4342479, “Reactive Oxygen Species (ROS)-Activatable Prodrug for Selective Activation of ATF6 after Ischemia/Reperfusion Injury” (ACS Med Chem Lett, 2020).

The term half-life denotes how long it takes for the measured level to halve.

Data set [1] concerns the target T1, Cyclic AMP-dependent transcription factor ATF-6 alpha (Rattus norvegicus) (UniProt G3V909).
T1 sequence (whole entry): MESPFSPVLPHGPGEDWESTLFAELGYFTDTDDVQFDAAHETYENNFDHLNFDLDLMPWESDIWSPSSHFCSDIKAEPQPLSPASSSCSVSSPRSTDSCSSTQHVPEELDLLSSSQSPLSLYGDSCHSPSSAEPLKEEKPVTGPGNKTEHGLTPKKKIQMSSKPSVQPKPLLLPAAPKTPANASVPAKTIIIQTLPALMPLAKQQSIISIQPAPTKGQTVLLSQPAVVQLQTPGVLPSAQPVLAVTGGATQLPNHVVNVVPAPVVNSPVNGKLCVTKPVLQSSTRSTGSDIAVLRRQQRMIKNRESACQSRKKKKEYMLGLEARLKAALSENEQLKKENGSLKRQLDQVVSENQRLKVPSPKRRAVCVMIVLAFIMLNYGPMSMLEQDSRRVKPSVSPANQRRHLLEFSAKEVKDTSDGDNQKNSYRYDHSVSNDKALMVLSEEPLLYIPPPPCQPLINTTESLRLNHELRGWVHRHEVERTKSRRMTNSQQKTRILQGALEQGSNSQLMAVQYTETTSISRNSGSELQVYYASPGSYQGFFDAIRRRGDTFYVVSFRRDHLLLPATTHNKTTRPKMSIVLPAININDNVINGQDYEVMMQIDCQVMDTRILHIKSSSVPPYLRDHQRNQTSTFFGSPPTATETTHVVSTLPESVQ
As to the kind of experiment: Activation of ATF6 in NRVM isolated from Sprague-Dawley rat assessed as increase in catalase expression at 10 uM using compound pre-activated with hydrogen peroxide for 8 hrs prior to NRVM treatment and measured after 16 hrs by SYBR green dye-based qRT-PCR analysis. (In general: In qPCR the cycle at which signal appears reflects the starting amount.)

In data set [2] the target is T2, Cytochrome P450 1A2 (Homo sapiens, UniProt P05177).
T2 sequence (P05177 whole entry): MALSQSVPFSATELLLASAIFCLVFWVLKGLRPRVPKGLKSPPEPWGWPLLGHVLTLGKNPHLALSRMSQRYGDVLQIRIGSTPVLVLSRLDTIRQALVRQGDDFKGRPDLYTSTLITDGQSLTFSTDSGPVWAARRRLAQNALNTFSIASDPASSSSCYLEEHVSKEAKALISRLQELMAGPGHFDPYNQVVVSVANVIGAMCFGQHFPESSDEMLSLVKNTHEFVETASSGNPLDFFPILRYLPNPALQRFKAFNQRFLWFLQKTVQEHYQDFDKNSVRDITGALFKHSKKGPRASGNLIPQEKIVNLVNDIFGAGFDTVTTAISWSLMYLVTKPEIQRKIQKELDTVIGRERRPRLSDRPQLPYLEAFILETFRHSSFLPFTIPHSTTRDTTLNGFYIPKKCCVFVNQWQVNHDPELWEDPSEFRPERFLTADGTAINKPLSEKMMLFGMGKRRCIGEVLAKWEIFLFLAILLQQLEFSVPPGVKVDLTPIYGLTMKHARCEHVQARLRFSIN
The experiment in a line: Substrate activity at recombinant CYP1A2 (unknown origin) assessed as [4-[[4-methyl-2-(3-phenylpropanoylamino)phenoxy]methyl]phenyl]boronic acid formation incubated for 24 hrs in presence of NADP+ by LC-MS analysis. The conditions noted are these: recombinant enzyme. Type of data set: ADME.

The target in data set [3] is T1, Cyclic AMP-dependent transcription factor ATF-6 alpha (Rattus norvegicus). As to the kind of experiment: Activation of ATF6 in simulated-ischemia-reperfusion NRVM isolated from Sprague-Dawley rat assessed as increase in cell viability by measuring media LDH content at 10 uM followed by ischemia simulation for 8 hrs and subsequent reperfusion and compound treatment for 24 hrs by LDH assay.

A short description of data set [4]: Stability of compound in HBS buffer at 1 mM at pH 7.3 and 37 degree C by HPLC or LC-MS analysis. The format is physicochemical. Particulars: pH 7.3, 1000 µM.
Data set [5] deals with T1, Cyclic AMP-dependent transcription factor ATF-6 alpha (Rattus norvegicus). As to the kind of experiment: Activation of ATF6 in simulated-ischemia-reperfusion NRVM isolated from Sprague-Dawley rat assessed as increase in cell viability by measuring media LDH content at 10 uM followed by ischemia simulation for 8 hrs and subsequent reperfusion and compound treatment for 24 hrs under normoxia condition by calcein-AM green dye based fluorescence microscopy.

Data set [6] can be described thus: Drug degradation in HBS buffer assessed as half life at 1 mM at pH 7.3 and 37 degree C by HPLC or LC-MS analysis. Type of data set: physicochemical.
For data set [7], the target named is T1, Cyclic AMP-dependent transcription factor ATF-6 alpha (Rattus norvegicus). As to the kind of experiment: Activation of ATF6 in NRVM isolated from Sprague-Dawley rat assessed as increase in GRP78 expression at 10 uM using compound pre-activated with hydrogen peroxide for 8 hrs prior to NRVM treatment and measured after 16 hrs by SYBR green dye-based qRT-PCR analysis.

For data set [8], the species on record is Rattus norvegicus. As to the kind of experiment: Cytoprotection against hydrogen peroxide-induced toxicity in NRVM isolated from Sprague-Dawley rat assessed as increase in cell viability at 10 uM pretreated for 24 hrs followed by hydrogen peroxide challenge measured after 8 hrs by MTT assay. The format is functional. For orientation: Tetrazolium dyes change colour on reduction, which living cells bring about.

A short description of data set [9]: Drug metabolism assessed as intact compound incubated for 24 hrs in presence of NADP+ and absence of recombinant CYP1A2 by LC-MS analysis.
Data set [10] addresses T1, Cyclic AMP-dependent transcription factor ATF-6 alpha (Rattus norvegicus). The experiment in a line: Activation of ATF6 in NRVM isolated from Sprague-Dawley rat assessed as increase in GRP78 expression at 10 uM measured after 16 hrs by SYBR green dye-based qRT-PCR analysis.
The target of data set [11] is T2, Cytochrome P450 1A2. As to the kind of experiment: Drug metabolism assessed as recombinant CYP1A2 (unknown origin)-mediated oxidation incubated for 24 hrs in presence of NADP+ by LC-MS analysis. The format is ADME. The conditions noted are these: recombinant enzyme.
The target in data set [12] is T1, Cyclic AMP-dependent transcription factor ATF-6 alpha (Rattus norvegicus). As to the kind of experiment: Activation of ATF6 in NRVM isolated from Sprague-Dawley rat assessed as increase in catalase expression at 10 uM measured after 16 hrs by SYBR green dye-based qRT-PCR analysis.

Structures are written as SMILES. Activity calls are given as the source filed them. The calls are words filed in the database; no cut-off is given here.

Turning to `Cc1ccc(OCc2ccc(B3OC(C)(C)C(C)(C)O3)cc2)c(NC(=O)CCc2ccccc2)c1`, the result in [1], in [3], in [5], in data set [7] and in [8] was Active. For the same molecule, in data set [2], the Drug metabolism result was “Metabolite_Notdetected”. For the same molecule, in data set [4], the Stability entry is on record as “Stable”. Moreover, in data set [6], the half-life at 1000 µM was 25.8 days.
In the case of `Cc1ccc(O)c(NC(=O)CCc2ccccc2)c1`, the results for the Drug metabolism entry in data set [9] and in [11] were “Metabolite not detected” and “Metabolite_Detected”, respectively. Moreover, the outcome in data set [10], in [3], in [5], in [12] and in [8] was Active.
As for `Cc1ccc(OCCc2ccc(B3OC(C)(C)C(C)(C)O3)cc2)c(NC(=O)CCc2ccccc2)c1`, the result in data set [1] and in data set [7] was inactive.
